In PubChem BioAssay AID248 (DTP/NCI, 2004):
Where “and” joins values, the source holds several entries; their conditions need not be identical. Equal values may be shown once. Inconclusive results and toxic doses are left out. No stated cut-off is given here; in the data, active means T/C of 150% or more; inactive means T/C below 125%.

Test system: L1210 leukemia ip in BDF1 mice, survival T/C
Assay: NCI In Vivo Anticancer Drug Screen. Data for tumor model L1210 Leukemia (intraperitoneal) in B6D2F1 (BDF1) mice
Details: higher = longer survival
Summary of the method: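 Tumor cells were implanted, animals were treated, and survival was followed. The result divides the treated measurement by the vehicle-control measurement.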

[1] = endpoint: mean survival time, dose: 100.0 mg/kg/injection, schedule: Q01DX001 (ip), vehicle: saline
[2] = endpoint: mean survival time, dose: 200.0 mg/kg/injection, schedule: Q01DX001 (ip), vehicle: saline
[3] = endpoint: mean survival time, dose: 100.0 mg/kg/injection, schedule: Q01DX009 (ip), vehicle: Klucel (hydroxypropylcellulose) (HPC)
[4] = endpoint: mean survival time, dose: 200.0 mg/kg/injection, schedule: Q01DX009 (ip), vehicle: Klucel (hydroxypropylcellulose) (HPC)
[5] = endpoint: mean survival time, dose: 100.0 mg/kg/injection, schedule: Q04DX003 (ip), vehicle: saline
[6] = endpoint: mean survival time, dose: 200.0 mg/kg/injection, schedule: Q04DX003 (ip), vehicle: saline
[7] = endpoint: mean survival time, dose: 400.0 mg/kg/injection, schedule: Q04DX003 (ip), vehicle: saline

Measured: T/C

CN(C)c1ccc(/C=C/c2ccnc3ccccc23)cc1
inactive: endpoint: mean survival time, dose: 4.0 mg/kg/injection, schedule: Q01DX Z (ip), vehicle: saline 103 % of control | endpoint: mean survival time, dose: 5.0 mg/kg/injection, schedule: Q01DX010 (ip), vehicle: saline 94 % of control and 100 % of control | endpoint: mean survival time, dose: 6.0 mg/kg/injection, schedule: Q01DX Z (ip), vehicle: saline 103 % of control | endpoint: mean survival time, dose: 8.0 mg/kg/injection, schedule: Q01DX Z (ip), vehicle: saline 103 % of control | endpoint: mean survival time, dose: 10.0 mg/kg/injection, schedule: Q01DX009 (ip), vehicle: saline 93 % of control and 101 % of control | endpoint: mean survival time, dose: 10.0 mg/kg/injection, schedule: Q01DX010 (ip), vehicle: saline 98 % of control | endpoint: mean survival time, dose: 10.0 mg/kg/injection, schedule: Q01DX Z (ip), vehicle: saline 97 % of control | endpoint: mean survival time, dose: 20.0 mg/kg/injection, schedule: Q01DX009 (ip), vehicle: saline 95 % of control and 97 % of control | endpoint: mean survival time, dose: 20.0 mg/kg/injection, schedule: Q01DX010 (ip), vehicle: saline 100 % of control and 91 % of control | endpoint: mean survival time, dose: 40.0 mg/kg/injection, schedule: Q01DX009 (ip), vehicle: saline 95 % of control and 88 % of control | endpoint: mean survival time, dose: 40.0 mg/kg/injection, schedule: Q01DX010 (ip), vehicle: saline 93 % of control and 100 % of control | endpoint: mean survival time, dose: 50.0 mg/kg/injection, schedule: Q01DX001 (ip), vehicle: saline 101 % of control | endpoint: mean survival time, dose: 64.0 mg/kg/injection, schedule: Q01DX010 (iv), vehicle: saline 108 % of control | endpoint: mean survival time, dose: 80.0 mg/kg/injection, schedule: Q01DX009 (ip), vehicle: saline 101 % of control | endpoint: mean survival time, dose: 100.0 mg/kg/injection, schedule: Q01DX001 (ip), vehicle: carboxymethylcellulose (CMC) 103 % of control | [1] 97 % of control | endpoint: mean survival time, dose: 128.0 mg/kg/injection, schedule: Q01DX010 (iv), vehicle: saline 87 % of control | endpoint: mean survival time, dose: 200.0 mg/kg/injection, schedule: Q01DX001 (ip), vehicle: carboxymethylcellulose (CMC) 109 % of control | [2] 103 % of control | endpoint: mean survival time, dose: 256.0 mg/kg/injection, schedule: Q01DX010 (iv), vehicle: saline 92 % of control | endpoint: mean survival time, dose: 400.0 mg/kg/injection, schedule: Q01DX001 (ip), vehicle: carboxymethylcellulose (CMC) 106 % of control | endpoint: mean survival time, dose: 800.0 mg/kg/injection, schedule: Q01DX001 (ip), vehicle: carboxymethylcellulose (CMC) 97 % of control | endpoint: median survival time, dose: 10.0 mg/kg/injection, schedule: Q01DX009 (ip), vehicle: saline 100 % of control and 87 % of control | endpoint: median survival time, dose: 20.0 mg/kg/injection, schedule: Q01DX009 (ip), vehicle: saline 100 % of control and 87 % of control | endpoint: median survival time, dose: 40.0 mg/kg/injection, schedule: Q01DX009 (ip), vehicle: saline 93 % of control and 105 % of control | endpoint: median survival time, dose: 80.0 mg/kg/injection, schedule: Q01DX009 (ip), vehicle: saline 100 % of control and 87 % of control

COC(=O)/C=C(\C)Nc1cccc([N+](=O)[O-])c1
inactive: endpoint: mean survival time, dose: 100.0 mg/kg/injection, schedule: Q01DX001 (ip), vehicle: other 94 % of control

Nc1nc2ccccc2c(Cl)c1Cl
inactive: endpoint: mean survival time, dose: 50.0 mg/kg/injection, schedule: Q01DX009 (ip), vehicle: Klucel (hydroxypropylcellulose) (HPC) 86 % of control | [3] 91 % of control | [4] 91 % of control

CCCCCCCCCCNC(=O)CI
inactive: [1] 100 % of control | [2] 94 % of control

CCOC(=O)C(Cc1ccccc1)C1=NC(C)(C)CC(C)O1 (configuration not stated)
inactive: endpoint: mean survival time, dose: 10.0 mg/kg/injection, schedule: Q01DX009 (ip), vehicle: alcohol 100 % of control | endpoint: mean survival time, dose: 200.0 mg/kg/injection, schedule: Q01DX009 (ip), vehicle: alcohol 104 % of control | endpoint: mean survival time, dose: 400.0 mg/kg/injection, schedule: Q01DX009 (ip), vehicle: alcohol 102 % of control

COC1OC2COC(c3ccccc3)OC2C(OC)C1OC(=O)c1ccccc1 (configuration not stated)
inactive: [5] 93 % of control | [6] 91 % of control | [7] 98 % of control

Cl[CH2][Sn]([c]1ccccc1)([c]1ccccc1)[c]1ccccc1
inactive: endpoint: mean survival time, dose: 6.25 mg/kg/injection, schedule: Q01DX009 (ip), vehicle: saline with Tween-80 113 % of control | endpoint: mean survival time, dose: 6.25 mg/kg/injection, schedule: Q01DX009 (ip), vehicle: saline 93 % of control | endpoint: mean survival time, dose: 12.5 mg/kg/injection, schedule: Q01DX009 (ip), vehicle: saline with Tween-80 106 % of control | endpoint: mean survival time, dose: 12.5 mg/kg/injection, schedule: Q01DX009 (ip), vehicle: saline 101 % of control | endpoint: mean survival time, dose: 25.0 mg/kg/injection, schedule: Q01DX009 (ip), vehicle: saline with Tween-80 101 % of control

CCN1C=C/C(=C/c2cc3scc(-c4ccccc4)[n+]3c3ccccc23)c2ccccc21
inactive: endpoint: mean survival time, dose: 0.01 mg/kg/injection, schedule: Q04DX003 (ip), vehicle: saline with Tween-80 108 % of control | endpoint: mean survival time, dose: 0.02 mg/kg/injection, schedule: Q04DX003 (ip), vehicle: saline with Tween-80 98 % of control | endpoint: mean survival time, dose: 0.04 mg/kg/injection, schedule: Q04DX003 (ip), vehicle: saline with Tween-80 93 % of control

CC(C)C1C(=O)N2CCCC2C2(O)OC(NC(=O)C3C=C4c5cccc6[nH]cc(c56)CC4N(C)C3)(C(C)C)C(=O)N12 (configuration not stated)
inactive: endpoint: mean survival time, dose: 25.0 mg/kg/injection, schedule: Q01DX009 (ip), vehicle: saline 94 % of control | endpoint: mean survival time, dose: 50.0 mg/kg/injection, schedule: Q01DX009 (ip), vehicle: saline 91 % of control | endpoint: mean survival time, dose: 50.0 mg/kg/injection, schedule: Q04DX003 (ip), vehicle: saline 106 % of control | endpoint: mean survival time, dose: 100.0 mg/kg/injection, schedule: Q01DX009 (ip), vehicle: saline 94 % of control | [5] 101 % of control | [6] 108 % of control | [7] 95 % of control

OCCCCCCCCCCC[n+]1ccccc1Cc1ccccc1
inactive: endpoint: mean survival time, dose: 75.0 mg/kg/injection, schedule: Q01DX001 (ip), vehicle: Klucel (hydroxypropylcellulose) (HPC) 92 % of control

NC(=O)N/N=C/C1CCC=CO1 (configuration not stated)
inactive: [3] 94 % of control | [4] 102 % of control | endpoint: mean survival time, dose: 400.0 mg/kg/injection, schedule: Q01DX009 (ip), vehicle: Klucel (hydroxypropylcellulose) (HPC) 103 % of control

CCCCCCNC(=O)COc1ccc(Cl)cc1
inactive: endpoint: mean survival time, dose: 100.0 mg/kg/injection, schedule: Q04DX002 (ip), vehicle: Klucel (hydroxypropylcellulose) (HPC) 97 % of control | endpoint: mean survival time, dose: 200.0 mg/kg/injection, schedule: Q04DX002 (ip), vehicle: Klucel (hydroxypropylcellulose) (HPC) 93 % of control | endpoint: mean survival time, dose: 400.0 mg/kg/injection, schedule: Q04DX002 (ip), vehicle: Klucel (hydroxypropylcellulose) (HPC) 101 % of control

C=CC1CN2CCC1CC2C(O)c1ccnc2ccc(OC)cc12 (configuration not stated)
inactive: endpoint: mean survival time, dose: 27.45 mg/kg/injection, schedule: Q01DX Z (ip), vehicle: other 92 % of control | endpoint: mean survival time, dose: 54.9 mg/kg/injection, schedule: Q01DX Z (ip), vehicle: other 92 % of control | endpoint: mean survival time, dose: 75.0 mg/kg/injection, schedule: Q01DX009 (ip), vehicle: saline with Tween-80 92 % of control | endpoint: mean survival time, dose: 109.8 mg/kg/injection, schedule: Q01DX Z (ip), vehicle: other 94 % of control | [2] 101 % of control

C[CH2][Ge]1([CH2]C)[CH2]CC2(C[CH2]1)CN(CCCN(C)C)CN2
inactive: endpoint: mean survival time, dose: 100.0 mg/kg/injection, schedule: Q04DX002 (ip), vehicle: saline 103 % of control

Cc1n[nH]c(=S)n1NC=O
inactive: [1] 94 % of control | [2] 94 % of control | endpoint: mean survival time, dose: 400.0 mg/kg/injection, schedule: Q01DX001 (ip), vehicle: saline 90 % of control

CC1CCC(C(O)(C(=O)O)C2CCC(C)CC2)CC1 (configuration not stated)
inactive: endpoint: mean survival time, dose: 75.0 mg/kg/injection, schedule: Q01DX001 (ip), vehicle: other 104 % of control | endpoint: mean survival time, dose: 150.0 mg/kg/injection, schedule: Q01DX001 (ip), vehicle: other 104 % of control

N#Cc1c(SCC(=O)O)nsc1SCC(=O)O
inactive: endpoint: mean survival time, dose: 100.0 mg/kg/injection, schedule: Q04DX002 (ip), vehicle: gum acacia 97 % of control | endpoint: mean survival time, dose: 200.0 mg/kg/injection, schedule: Q04DX002 (ip), vehicle: gum acacia 94 % of control | endpoint: mean survival time, dose: 400.0 mg/kg/injection, schedule: Q04DX002 (ip), vehicle: gum acacia 100 % of control

COC(=O)c1noc2cc([N+](=O)[O-])ccc12
inactive: endpoint: mean survival time, dose: 100.0 mg/kg/injection, schedule: Q01DX009 (ip), vehicle: saline with Tween-80 96 % of control | endpoint: mean survival time, dose: 200.0 mg/kg/injection, schedule: Q01DX009 (ip), vehicle: saline with Tween-80 92 % of control | endpoint: mean survival time, dose: 400.0 mg/kg/injection, schedule: Q01DX009 (ip), vehicle: saline with Tween-80 90 % of control
